Like-named read-outs stand apart in the source and are kept apart here. Starred links: 1 amine or outer side, 2 acyl side, 3 side chain; linkers in the order of their positions; H or OH if unused. Positions of bridges follow the written chain, without caps; N, C: chain ends. Non-standard residues stand in square brackets, D forms with d. Residues, ends and D or L forms follow the SMILES beside them. *: point of attachment. Orn(4R-OH,5R-OCH2CH2NMe3+) = C[N+](C)(C)CCO[C@@H](N[*:3])[C@H](O)C[C@H](N[*:1])C(=O)[*:2]; pTerphenylCO(4''-OnC5H11) = CCCCCOc1ccc(-c2ccc(-c3ccc(C(=O)*)cc3)cc2)cc1; hTyr(3S-OH,4S-OH) = N[C@H](C(=O)O)[C@H](O)[C@@H](O)c1ccc(O)cc1; Pro(3S-OH,4S-Me) = C[C@H]1CN[C@H](C(=O)O)[C@H]1O; Hyp = O=C(O)[C@@H]1C[C@@H](O)CN1
How the values were obtained:
[1] = test system: Candida albicans clinical isolates; conditions: SENTRY, Pfaller, et al 2017; cited from earlier work
[2] = Pharmacokinetic profile in mice following a 10-mg/kg subcutaneous dose; assay type: in vivo; conditions: mouse, plasma, sc
[3] = Pharmacokinetics of CD101 after single 30 mg/kg SC (vs IV) dose in monkeys; assay type: in vivo; conditions: cynomolgus monkey, plasma; for half-life: 30 mg/kg
Protocol: (§1) Previous toxicology studies by the IV route of administration conducted in cynomolgus monkeys have shown CD101 to be safe and well tolerated at up to at least 30 mg/kg, which generates very high systemic exposures upon initial infusion of CD101 into the bloodstream. Therefore, only local tolerability (and PK) of CD101 by SC administration required evaluation. […] Plasma concentrations were then quantified by liquid chromatography with tandem mass spectrometric detection (LC-MS/MS). Bioavailability from SC dosing was calculated by comparing the calculated area under the concentration-time profile (AUC) from SC against the AUC from IV administration of the same dose.

[4] = Pharmacokinetic profile in female rats, 10 mg/kg IV and SC; conditions: rat, in vivo
Text: The pharmacokinetic (PK) profile of CD101 in female rats (three per group) was characterized.

[5] = Monkey SC local tolerability study; assay type: in vivo, cynomolgus monkey
Protocol: as §1
Therefore, a separate study was designed to evaluate the tolerability of a SC dose of CD101 as a highly concentrated solution (100 mg/mL; 30 mg/kg) in two cynomolgus monkeys. […] The drug reaches a maximum concentration within a few hours then remains nearly constant over the course of 10 days.

C. parapsilosis [6] = assay: Neutropenic murine disseminated candidiasis model, PK/PD targets, C. parapsilosis
C. parapsilosis [7] = assay: In vitro susceptibility testing (CLSI M27-A3), C. parapsilosis; assay type: cell-based, Candida parapsilosis; conditions: Lodderomyces parapsilosis, 24 h
Protocol: Ten clinical Candida strains were used for the in vivo treatment studies, including four C. albicans, three C. glabrata, and three C. parapsilosis strains (Table 15). This group was selected to encompass phenotypic variability in susceptibility to triazoles and echinocandins and based on similar fitness in the animal model as defined by the amount of growth in control animals over 24 h. The organisms were maintained, grown, and quantified on Sabouraud's dextrose agar (SDA) plates.
In vitro susceptibility testing. All isolates were tested in accordance with the standards in CLSI document M27-A3. The MICs were determined visually after 24 h of incubation as the lowest concentration of drug that causes a significant diminution (50%) of growth compared to controls. MICs were determined on three separate occasions in duplicate.

C. glabrata = assay: Neutropenic murine disseminated candidiasis model, PK/PD targets, C. glabrata
[8] = both sexes, sc, Subcutaneous 30 mg/kg
[9] = female, animal 9707, F, 30 mg/kg SC
[10] = male, animal 9697, M, 30 mg/kg SC
[11] = C. glabrata, Median of 3 strains

Which MIC90 [1] does the source give for `CCCCCOc1ccc(-c2ccc(-c3ccc(C(=O)N[C@H]4C[C@@H](O)[C@@H](OCC[N+](C)(C)C)NC(=O)[C@@H]5[C@@H](O)[C@@H](C)CN5C(=O)[C@H]([C@@H](C)O)NC(=O)[C@H]([C@H](O)[C@@H](O)c5ccc(O)cc5)NC(=O)[C@@H]5C[C@@H](O)CN5C(=O)[C@H]([C@@H](C)O)NC4=O)cc3)cc2)cc1` [CD101] ({pTerphenylCO(4''-OnC5H11)}-[Orn(4R-OH,5R-OCH2CH2NMe3+)]T[Hyp][hTyr(3S-OH,4S-OH)]T[Pro(3S-OH,4S-Me)]; lactam 1-C) here?
The MIC90 was 0.06 µg/mL.

What about the half-life [2] of the same compound?
Its half-life is roughly 25 h.

What about the bioavailability ([2]; read-out: absolute bioavailability) of the same compound?
Its bioavailability is roughly 50%.

And the half-life [3, 8]?
Its half-life is roughly 124 h.

And the AUC(0-t) [3, 8]?
The AUC(0-t) was 2460 µg·h/mL.

What about the Cmax [3, 8] of the same compound?
Its Cmax is 13400 ng/mL.

And the Tmax [3, 8]?
Its Tmax is 72 h.

What about the AUC(0-inf) ([3]; both sexes, sc, Subcutaneous 30 mg/kg, read-out: AUCinf) of the same compound?
Its AUC(0-inf) is 3520 µg·h/mL.

What about the bioavailability ([3]; both sexes, subcutaneous, SC 30 mg/kg vs IV at the same dose, 10-day period) of the same compound?
Its bioavailability is 80%.

And the half-life ([3]; iv, IV 30 mg/kg)?
Its half-life is 49.7 h.

And the AUC(0-t) ([3]; IV 30 mg/kg)?
Its AUC(0-t) is 3140 µg·h/mL.

And the Cmax ([3]; IV 30 mg/kg)?
Its Cmax is 112000 ng/mL.

And the Tmax ([3]; IV 30 mg/kg)?
The Tmax was 1 h.

And the AUC(0-inf) ([3]; IV 30 mg/kg, read-out: AUCinf)?
The AUC(0-inf) was 3340 µg·h/mL.

And the half-life ([3]; female, sc, animal 9707, F, 30 mg/kg SC)?
The half-life was 171 h.

And the AUC(0-t) [3, 9]?
The AUC(0-t) was 2180 µg·h/mL.

And the Cmax [3, 9]?
Its Cmax is 10900 ng/mL.

And the Tmax [3, 9]?
The Tmax was 48 h.

What about the AUC(0-inf) ([3]; female, animal 9707, F, 30 mg/kg SC, read-out: AUCINF_obs) of the same compound?
The AUC(0-inf) was 3760 µg·h/mL.

And the half-life ([3]; male, sc, animal 9697, M, 30 mg/kg SC)?
Its half-life is 76.2 h.

And the AUC(0-t) [3, 10]?
Its AUC(0-t) is 2740 µg·h/mL.

And the Cmax [3, 10]?
Its Cmax is 15900 ng/mL.

What about the Tmax [3, 10] of the same compound?
The Tmax was 96 h.

What about the AUC(0-inf) ([3]; male, animal 9697, M, 30 mg/kg SC, read-out: AUCINF_obs) of the same compound?
The AUC(0-inf) was 3280 µg·h/mL.

And the Tmax ([4]; SC administration)?
Its Tmax is 8 to 24 h.

And the half-life ([4]; SC, read-out: t½ (converted))?
The half-life was 48 h.

And the bioavailability ([4]; sc)?
The bioavailability was 97%.

And the “irritation or local (injection site) adverse toxicity” value ([5]; single 30 mg/kg SC (100 mg/mL))?
The value was “no sign of irritation or local (injection site) adverse toxicity”.

And the “bodyweight or food consumption” value ([5]; single 30 mg/kg SC, 10 days after administration)?
Its value is “no effect on bodyweight or food consumption”.

And the “median stasis 24 h free drug AUC/MIC target” value (C. parapsilosis [6]; C. parapsilosis)?
Its value is 2.61.

And the “Stasis 24 h Ave free drug AUC/MIC” value (C. parapsilosis [6]; C. parapsilosis 20423.072)?
Its value is 1.39.

What about the “Stasis free drug AUC0-168h/MIC” value (C. parapsilosis [6]; C. parapsilosis 20423.072) of the same compound?
Its value is 9.74.

What about the “Stasis total drug AUC0-168h/MIC” value (C. parapsilosis [6]; C. parapsilosis 20423.072) of the same compound?
Its value is 1217.49.

What about the Static dose (C. parapsilosis [6]; C. parapsilosis 20423.072) of the same compound?
The Static dose was 9.62 mg/kg.

What about the “Stasis 24 h Ave free drug AUC/MIC” value (C. parapsilosis [6]; C. parapsilosis 20477.048) of the same compound?
The value was 3.82.

And the “Stasis free drug AUC0-168h/MIC” value (C. parapsilosis [6]; C. parapsilosis 20477.048)?
Its value is 26.72.

What about the “Stasis total drug AUC0-168h/MIC” value (C. parapsilosis [6]; C. parapsilosis 20477.048) of the same compound?
The value was 3339.42.

What about the Static dose (C. parapsilosis [6]; C. parapsilosis 20477.048) of the same compound?
The Static dose was 52.96 mg/kg.

And the “median stasis free drug AUC0-168/MIC target” value (C. parapsilosis [6]; C. parapsilosis (only two strains achieved the endpoint))?
Its value is 18.2.

And the MIC (C. parapsilosis [7]; C. parapsilosis 20423.072)?
The MIC was 0.5 µg/mL.

And the MIC (C. parapsilosis [7]; C. parapsilosis 20477.048)?
Its MIC is 1 µg/mL.

What about the MIC (C. parapsilosis [7]; C. parapsilosis 20519.069) of the same compound?
The MIC was 1 µg/mL.

What about the “1 log kill 24 h Ave Free drug AUC/MIC” value (C. glabrata; C. glabrata 5592) of the same compound?
The value was 0.36.

What about the “1 log kill dose” value (C. glabrata; C. glabrata 5592) of the same compound?
The value was 0.43 mg/kg.

What about the “1 log kill free drug AUC0-168h/MIC” value (C. glabrata; C. glabrata 5592) of the same compound?
Its value is 2.54.

And the “1 log kill total drug AUC0-168h/MIC” value (C. glabrata; C. glabrata 5592)?
The value was 317.50.

And the “Stasis 24 h Ave free drug AUC/MIC” value (C. glabrata; C. glabrata 5592)?
The value was 0.05.

And the “Stasis free drug AUC0-168h/MIC” value (C. glabrata; C. glabrata 5592)?
Its value is 0.35.

What about the “Stasis total drug AUC0-168h/MIC” value (C. glabrata; C. glabrata 5592) of the same compound?
The value was 43.16.

What about the Static dose (C. glabrata; C. glabrata 5592) of the same compound?
The Static dose was 0.06 mg/kg.

What about the “1 log kill 24 h Ave Free drug AUC/MIC” value (C. glabrata; C. glabrata 10956) of the same compound?
Its value is 1.20.

What about the “1 log kill dose” value (C. glabrata; C. glabrata 10956) of the same compound?
The value was 17.25 mg/kg.

What about the “1 log kill free drug AUC0-168h/MIC” value (C. glabrata; C. glabrata 10956) of the same compound?
The value was 8.42.

What about the “1 log kill total drug AUC0-168h/MIC” value (C. glabrata; C. glabrata 10956) of the same compound?
The value was 1052.22.

And the “Stasis 24 h Ave free drug AUC/MIC” value (C. glabrata; C. glabrata 10956)?
The value was 0.48.

What about the “Stasis free drug AUC0-168h/MIC” value (C. glabrata; C. glabrata 10956) of the same compound?
Its value is 3.35.

What about the “Stasis total drug AUC0-168h/MIC” value (C. glabrata; C. glabrata 10956) of the same compound?
Its value is 418.68.

What about the Static dose (C. glabrata; C. glabrata 10956) of the same compound?
Its Static dose is 6.29 mg/kg.

What about the “1 log kill 24 h Ave Free drug AUC/MIC” value (C. glabrata; C. glabrata 35315) of the same compound?
The value was 0.42.

What about the “1 log kill dose” value (C. glabrata; C. glabrata 35315) of the same compound?
The value was 2.39 mg/kg.

And the “1 log kill free drug AUC0-168h/MIC” value (C. glabrata; C. glabrata 35315)?
Its value is 2.94.

What about the “1 log kill total drug AUC0-168h/MIC” value (C. glabrata; C. glabrata 35315) of the same compound?
Its value is 367.06.

And the “Stasis 24 h Ave free drug AUC/MIC” value (C. glabrata; C. glabrata 35315)?
The value was 0.07.

What about the “Stasis free drug AUC0-168h/MIC” value (C. glabrata; C. glabrata 35315) of the same compound?
The value was 0.50.

What about the “Stasis total drug AUC0-168h/MIC” value (C. glabrata; C. glabrata 35315) of the same compound?
The value was 62.50.

What about the Static dose (C. glabrata; C. glabrata 35315) of the same compound?
The Static dose was 0.34 mg/kg.

What about the “1 log kill 24 h Ave Free drug AUC/MIC” value (C. glabrata; C. glabrata, Mean of 3 strains) of the same compound?
Its value is 0.66.

And the “1 log kill dose” value (C. glabrata; C. glabrata, Mean of 3 strains)?
Its value is 6.69 mg/kg.

What about the “1 log kill free drug AUC0-168h/MIC” value (C. glabrata; C. glabrata, Mean of 3 strains) of the same compound?
Its value is 4.63.

What about the “1 log kill total drug AUC0-168h/MIC” value (C. glabrata; C. glabrata, Mean of 3 strains) of the same compound?
The value was 578.93.

What about the “Stasis 24 h Ave free drug AUC/MIC” value (C. glabrata; C. glabrata, Mean of 3 strains) of the same compound?
The value was 0.20.

And the “Stasis free drug AUC0-168h/MIC” value (C. glabrata; C. glabrata, Mean of 3 strains)?
Its value is 1.40.

What about the “Stasis total drug AUC0-168h/MIC” value (C. glabrata; C. glabrata, Mean of 3 strains) of the same compound?
Its value is 174.78.

And the Static dose (C. glabrata; C. glabrata, Mean of 3 strains)?
The Static dose was 2.23 mg/kg.

And the “1 log kill 24 h Ave Free drug AUC/MIC” value (C. glabrata; [11])?
The value was 0.42.

And the “1 log kill dose” value (C. glabrata; [11])?
Its value is 2.39 mg/kg.

And the “1 log kill free drug AUC0-168h/MIC” value (C. glabrata; [11])?
The value was 2.94.

And the “1 log kill total drug AUC0-168h/MIC” value (C. glabrata; [11])?
The value was 367.06.

What about the “Stasis 24 h Ave free drug AUC/MIC” value (C. glabrata; [11]) of the same compound?
The value was 0.07.

What about the “Stasis free drug AUC0-168h/MIC” value (C. glabrata; [11]) of the same compound?
Its value is 0.5.

And the “Stasis total drug AUC0-168h/MIC” value (C. glabrata; [11])?
Its value is 62.50.

And the Static dose (C. glabrata; [11])?
The Static dose was 0.34 mg/kg.

What about the “kill at high doses” value (C. glabrata; C. glabrata, a number of strains) of the same compound?
Its value is greater than 2 log10.
